Values quoted from earlier work as cited in US9522161B2, “Performance enhancing composition and method of delivering nutrients” (Advanced Bio Development, Inc., priority 2010, dated 2016).
Entries after “also recorded” stand apart in the source; their conditions may differ.

How the values were obtained:
[1] = pilot studies and human trials
[2] = taken orally
[3] = not given; remark: listed apart in the source
[4] = not given; remark: listed apart in the source
[5] = test system: mice that have a hypoinsulinemic type of diabetes; conditions: mice with hypoinsulinemic type of diabetes
[6] = test system: muscle cells
[7] = not given; remark: listed apart in the source
[8] = consumed orally, within two hours
[9] = test system: muscle; conditions: ribose supplementation in rats, depending on muscle fiber type
[10] = humans, chronic high-intensity exercise, ribose supplementation

## Nc1ncnc2c1ncn2[C@@H]1O[C@H](COP(=O)(O)OP(=O)([O-])OP(=O)([O-])O)[C@@H](O)[C@H]1O.[Na+].[Na+] [ATP disodium, adenosine triphosphate (ATP) disodium]
[1]
  adverse side effects: no adverse side effects have been observed
[2]
  duration of measurable increase in circulating ATP levels: at least six

## Cn1c(=O)c2c(ncn2C)n(C)c1=O [Caffeine]
After consumption
  time until elevated levels appear in the bloodstream: 15 to 45 min
Post ingestion
  time of peak concentrations post ingestion: one
Within three to six hours of consumption
  decrease of circulating concentrations: 50 to 75%

## COC1=C(OC)C(=O)C(C/C=C(\C)CC/C=C(\C)CC/C=C(\C)CC/C=C(\C)CC/C=C(\C)CC/C=C(\C)CC/C=C(\C)CC/C=C(\C)CC/C=C(\C)CCC=C(C)C)=C(C)C1=O [CoQ10, Coenzyme Q10]
[3]; dosages of 90 to 150 mg/day
  increase in plasma concentrations: 180%
[3]; in vivo
  uptake of CoQ10 into the blood, share of the dose administered: 5 to 10%
[4]; 2,152 patients, 100 to 200 mg per day
  safety in cardiovascular-related clinical trials: safe, without any reports of toxicity or drug interactions
[4]; nausea, vomiting, diarrhea, appetite suppression, heartburn, epigastric discomfort
  share of users with gastrointestinal side effects: Less than one
[4]; over 8 months
  dosing level shown to be safe and well tolerated: ≤ 3,000 mg per day

## CO[C@H]1[C@H](O)[C@@H](O)[C@@H](O)[C@H](O)[C@@H]1O [D-pinitol]
[5]
  insulin-like effect: acute and chronic insulin-like effect

## CO[C@H]1[C@H](O)[C@@H](O)[C@@H](O)[C@H](O)[C@@H]1O [Pinitol]
[6]
  stimulation of glucose uptake in muscle cells: 25-80%

## O=C[C@H](O)[C@H](O)[C@H](O)CO [Ribose]
[7]; doses of 10 grams or more on an empty stomach
  known side effects: transient hypoglycemia; also recorded: gastrointestinal discomfort, including loose stools and diarrhea
[7]; in vivo
  ribose level that can be safely ingested: ≤ 15 g per day
[8]
  fraction of ribose absorbed in the intestines: 88-100%
[9]
  increase in hypoxanthine salvage: six- to eight-fold
  increase in nucleotide salvage: three- to six-fold
[10]
  time to return TAN and ATP levels to baseline: 65 to 72 h
